What was measured:
[1] = system: Jurkat Clone E6-1 human T lymphoblast cells; assay: eGFP mRNA transfection, Jurkat cells (96-well); format: cell-based; conditions: 150 ng eGFP mRNA, 24 h
Protocol: Jurkat Clone E6-1 (ATCC® TIB-152™) human T lymphoblast cells were grown in RPMI-1640 (LONZA) with 10% of FBS (EUROBIO) and supplemented with 2 mM Glutamine (LONZA), 100 U/mL of penicillin and 100 μg/mL of streptomycin (LONZA) at 37° C. in a 5% CO2 in air atmosphere.
(§1) mRNA eGFP (996 nt, reference L-6101) from TriLink Technologies was used for the in vitro transfection experiments and expressed enhanced green fluorescent protein which is a common reporter gene (eGFP). This mRNA was capped with a Cap 0, polyadenylated and modified with 5-methylcytidine and pseudo-uridine.
(§2) One day before transfection, Caco-2, THP-1 or BJ Cells were seeded at 10 000, 25 000, or 5 000 cells per well (96-well plate format), respectively, in 125 μL of their respective complete medium and incubated at 37° C. in a 5% CO2 in air atmosphere. For Jurkat cells, 25 000 cells were seeded per well prior transfection. On the day of transfection 150 ng of mRNA was added in 11.5 μL of 5% glucose solution, mixed with a vortex and incubated for 5 minutes at rt. Then, 1 μL of 1 mM cationic liposomal formulation was added onto the diluted mRNA, mixed with a vortex and incubated for 15 minutes at rt. The formulated mRNA solution (12.5 μL) was added into the well and the plate was incubated for 24 hours at 37° C. in a 5% CO2 in air atmosphere.
(§3) For the GFP expression analysis, the cell culture medium was removed for the adherent cells and 50 μL of trypsin-EDTA (1×, Lonza) was added and the plate was incubated for 5 minutes at 37° C. 150 μL of complete medium were added to neutralize the trypsin, and the GFP expression was analysed (2000 events) by flow cytometry (Exc 488 nm, Em 520 nm) using a Guava easyCyte 6HT cytometer (Millipore).
(§4) All these new liposomal formulations (Table 1) were assessed to deliver mRNA expressing an enhanced green fluorescent protein (eGFP) as reporter gene in order to determine the gene expression and the transfection efficiency (Table 2). mRNA eGFP capped with a Cap 0 in 5′-end, polyadenylated in 3′-end and modified with 5-methylcytidine and pseudo-uridine was used in the transfection assay. The transfection assay was performed as described in the Experimental section where 150 ng of mRNA eGFP was complexed with 1 μL of 1 mM cationic liposomal formulations in a 5% glucose solution before the addition on the cells. One day post-transfection, the eGFP expression was analyzed by flow cytometry to determine the percentage of transfection. Four different cell lines were used in this assay from easy to transfect cells to hard to transfect cells with plasmid DNA, including human BJ skin fibroblast cells, THP-1 human peripheral blood monocytes, Caco-2 human colon epithelial cells and Jurkat Clone E6-1 human T lymphoblast cells, respectively.

[2] = system: Caco-2 human colon epithelial cells; assay: eGFP mRNA transfection, Caco-2 cells (96-well); format: cell-based; conditions: co-lipid DOPE, ratio 1/2; 150 ng eGFP mRNA; 24 h
Protocol: Caco-2 (ATCC® HTB-37™) human colon epithelial cells were grown in DMEM 4.5 g/L glucose with 20% FBS supplemented with 1% non-essential amino acids, 1 mM sodium pyruvate, 2 mM glutamine and 100 U/mL of penicillin and 100 μg/mL of streptomycin at 37° C. in a 5% CO2 in air atmosphere.
as §1, §2, §3, §4

[3] = system: THP-1 human peripheral blood monocyte cells; assay: eGFP mRNA transfection, THP-1 cells (96-well); format: cell-based; conditions: ratio 1/2, 150 ng eGFP mRNA, 24 h
Protocol: THP-1 (ATCC® TIB-202™) human peripheral blood monocyte cells were grown in RPMI-1640 with 10% FBS and supplemented with 10 mM HEPES buffer, 1 mM sodium pyruvate, 0.05 mM 2-mercaptoethanol, 2 mM glutamine, 100 U/mL of penicillin and 100 μg/mL of streptomycin at 37° C. in a 5% CO2 in air atmosphere.
as §1, §2, §3, §4

[4] = system: BJ human skin fibroblast cells; assay: eGFP mRNA transfection, BJ cells (96-well); format: cell-based; conditions: co-lipid DOPE, ratio 1/2; 150 ng eGFP mRNA; 24 h
Protocol: BJ (ATCC® CRL-2522™) human skin fibroblast cells were grown in Eagle's Minimum Essential Medium with 10% FBS and supplemented with 1% non-essential amino acids, 1 mM sodium pyruvate, 2 mM glutamine and 100 U/mL of penicillin and 100 μg/mL of streptomycin at 37° C. in a 5% CO2 in air atmosphere.
as §1, §2, §3, §4

[5] = system: BJ, THP-1, Caco-2 and Jurkat cells; assay: eGFP mRNA transfection, overall statements on the four cell lines; format: cell-based, human; conditions: formulated with co-lipid DOPE or DPyPE
Protocol: as §1, §2, §3, §4

[6] = co-lipid DOPE, ratio compound/co-lipid 1/2, 1 μL of 1 mM formulation, flow cytometry

Row | Structure (SMILES) | Transfection efficiency (eGFP %) CaCO2 [2] | Transfection efficiency (eGFP %) Jurkat [1, 6] | Transfection efficiency (eGFP %) THP-1 ([3]; co-lipid DOPE) | Transfection efficiency (eGFP %) BJ [4] | transfection activity (in words) [5] | Transfection efficiency (eGFP %) Jurkat ([1]; co-lipid DPyPE, ratio 1/2) | Transfection efficiency (eGFP %) THP-1 ([3]; co-lipid DPyPE)
1 | CCCCCCCCCCCCCCC(CCCCCCCCCCCCCC)[n+]1ccn(C)c1.[Cl-] [Compound W4.3, 1-methyl-3-(nonacosan-15-yl)-1H-imidazol-3-ium chloride] | 5-10% | 0-1% | 30-40% | 50-60% | reduced transfection activity |  | 
2 | CCCCCCCCCCCCCCCCC(CCCCCCCCCCCCCCCC)[n+]1ccn(C)c1.[Cl-] [Compound W5.3, 1-methyl-3-(tritriacontan-17-yl)-1H-imidazol-3-ium chloride] | 5-10% | 0-2% | 50-60% | 60-70% | reduced transfection activity |  | 
3 | CCCCCCCCCCCCCCCCCCC(CCCCCCCCCCCCCCCCCC)CCCCC(CCCCCCCCCCCCCCCCCC)[n+]1ccn(C)c1.[Cl-] (centres unmarked) [Compound W13.7, 1-methyl-3-(24-octadecyldotetracontan-19-yl)-1H-imidazol-3-ium chloride] | 75-80% | 10-20% | 80-85% | 65-75% |  |  | 
4 | CCCCCCCC/C=C\CCCCCCCCC(CCCCC(CCCCCCCCCCCCCC)CCCCCCCCCCCCCC)[n+]1ccn(CCCC)c1.[Cl-] (centres unmarked) [Compound W20.7, 1-butyl-3-(24-tetradecyloctatriacont-9-en-19-yl)-1H-imidazol-3-ium chloride] | 80-85% | 60-70% | 80-90% | 90-95% |  | 50-60% | 65-80%
5 | CCCCCCCCCCCCCCCCCCC(CCCCC(CCCCCCCCCCCCCC)CCCCCCCCCCCCCC)[n+]1ccn(CCO)c1.[Cl-] (centres unmarked) [Compound W25.7, 1-(2-hydroxyethyl)-3-(24-tetradecyloctatriacontan-19-yl)-1H-imidazol-3-ium chloride] | 45-55% | 25-35% | 80-85% | 90-95% | without really affecting the transfection activity |  | 
6 | CCCCCCCCCCCCCCCCC(CCCCCCCCCCCCCCCC)CCC[n+]1ccn(C)c1 [Compound W29.5, 1-methyl-3-(4-hexadecylicosyl)-1H-imidazol-3-ium chloride] |  | 10-15% | 30-40% |  | without really affecting the transfection activity |  | 

Continued, in another order:

Row | Transfection efficiency (eGFP %) CaCO2 [2] | Structure (SMILES) | Transfection efficiency (eGFP %) Jurkat [1, 6] | Transfection efficiency (eGFP %) THP-1 ([3]; co-lipid DOPE) | Transfection efficiency (eGFP %) BJ [4] | transfection activity (in words) [5] | Transfection efficiency (eGFP %) Jurkat ([1]; co-lipid DPyPE, ratio 1/2) | Transfection efficiency (eGFP %) THP-1 ([3]; co-lipid DPyPE)
7 | 50-55% | CCCCCCCCCCCCCCC(CCCCCCCCCCCCCC)CCCCC(CCCCCCCCCCCCCC)[n+]1ccn(CCO)c1.[Cl-] (centres unmarked) [Compound W26.7, 1-(2-hydroxyethyl)-3-(20-tetradecyltetratriacontan-15-yl)-1H-imidazol-3-ium chloride] | 10-15% | 70-80% | 90-95% | without really affecting the transfection activity |  | 
8 | 65-75% | CCCCCCCC/C=C\CCCCCCCCC(CCCCC(CCCCCCCCCCCCCC)CCCCCCCCCCCCCC)[n+]1ccn(CC)c1.[Cl-] (centres unmarked) [Compound W27.7, 1-ethyl-3-(24-tetradecyloctatriacont-9-en-19-yl)-1H-imidazol-3-ium chloride] | 5-10% | 40-50% | 90-95% | without really affecting the transfection activity |  | 
9 | 40-45% | CCCCCCCCCCCCCCCCCCC(CCCC(CCCCCCCCCCCCCC)CCCCCCCCCCCCCC)[n+]1ccn(C)c1.[Cl-] (centres unmarked) [Compound W28.7, 1-methyl-3-(15-tetradecylheptatriacontan-19-yl)-1H-imidazol-3-ium chloride] | 15-25% | 80-85% | 90-95% | without really affecting the transfection activity |  | 
10 | 5-10% | CCCCCCCCCCCCCCCCCCC(CCCCCCCCCCCCCCCCCC)n1cc[n+](C)c1.[Cl-] [MONI, 1-Methyl-3-(1-Octadecyl-Nonadecyl)-3H-Imidazol-1-ium chloride, reference compound] | 5-10% | 30-40% | 50-60% |  |  | 
